Literature values, collected in PMC13050480, “Preclinical Development of GT-14, a Novel Inhibitor of Gαi2 Protein: Comprehensive Evaluation of Physicochemical, Metabolic Characteristics and Tissue Distribution” (The AAPS journal, 2025).

Experiments:
[1] = system: albumin; parameters: method as in PMID 27106175; conditions: cited from earlier work
[2] = system: α1-acid glycoprotein; parameters: method as in PMID 27106175; conditions: cited from earlier work
[3] = cited from earlier work

In the case of `C[C@]12CC[C@H](O)CC1=CC[C@@H]1[C@@H]2CC[C@]2(C)C(c3cccnc3)=CC[C@@H]12` [Abiraterone], the protein-bound to albumin [1] is given as 95.6–99.9%, the “protein-bound to α1-acid glycoprotein” value [2] is given as 89.4–95.6% and the “volume of distribution (Vd)” value [3] is given as ~ 5630 L.

In the case of `CC(O)(CS(=O)(=O)c1ccc(F)cc1)C(=O)Nc1ccc(C#N)c(C(F)(F)F)c1` (stereo not shown) [Bicalutamide], the half-life [3] is given as 25 to 30 h, the oral bioavailability [3] is given as “high oral bioavailability” and the “tissue distribution of [3H]-Bicalutamide” value [3] is given as “preferential accumulation in the prostate, pituitary gland, and seminal vesicles, with limited brain penetration”.

In the case of `CNC(=O)c1ccc(N2C(=S)N(c3ccc(C#N)c(C(F)(F)F)c3)C(=O)C2(C)C)cc1F` [Enzalutamide], the “apparent oral volume of distribution (Vd/F)” value [3] is given as “around 110 L”.
